Reference: patent US4590277A, “Acridinecarboxamide compounds” (Development Finance Corporation of New Zealand, priority 1982, dated 1986)

Legend:
[1] = Reversed phase partition chromatography (lipophilic-hydrophilic balance); format: physicochemical; details: linearly related to partition coefficients in 1-octanol/water, read-out: Rm
Text: Rm=a measure of the compound's lipophilic-hydrophilic balance from reversed phase partition chromatography. Rm is linearly related to partition coefficients obtained in the 1-octanol/water system.

[2] = tested on: murine L1210 leukaemic cells; test: L1210 in vitro growth inhibition; format: cell-based; details: Mus musculus, drug added to cultures over 70 hours, 50% reduction of counted leukaemia cells, below 1000 nM considered significant, read-out: L1210 in vitro ID50
Experimental: L1210 in vitro--The culture methods used are described in detail elsewhere (B. C. Baguley and R. Nash, Europ. J. Cancer, 17, 671-679 (1981)). Acceptable reproducibility of data depends critically upon the maintenance of optimal culture conditions. L1210 cells were initially obtained from Dr I. Wodinsky, Arthur D. Little Inc., Boston, U.S.A., under the auspices of the National Cancer Institute.
Values below 1000 nM are considered significant.

P388 tumour cells = test: P388 in vivo, life span extension; design: species or system mice (F1 hybrid, DBA-2 male x C57 B1 female); key to P388 in vivo Active: Y: implies a significant value of drug activity at the stated dose; N: implies no or not statistically significant activity; details: for P388 in vivo ILS (percentage increase in life span): at optimal dose, days 1, 5 and 9, vs controls (average survival 11 days), greater than 20% statistically significant; for P388 in vivo Active: at the stated (optimal) dose
Experimental: P388 in vivo--Tumour P388 cells were obtained as frozen stocks from Mason Research Inc., U.S.A. and passaged intraperitoneally according to standard methods (Cancer Chemother. Rep. 3, Part 3, page 9, 1972) in DBA-2 mice of either sex. Groups of six Fl hybrid mice (DBA-2 male x C57 B1 female, g weight 20±1 g) were injected intraperitoneally with 10^6 cells on day 0.
O.D.--optimal drug dose, in milligrams per kilogram, administered as a solution in 0.1 ml of 30% v/v ethyl alcohol in water on days 1, 5 and 9 after tumour inoculation. The drug is administered as a soluble acid addition salt.
ILS--percentage increase in life span of treated animals over that of groups of control animals injected with tumour alone. The average survival of control mice was 11 days. Values of ILS greater than 20% are considered statistically significant.
Y. implies a significant value of drug activity at the stated dose.
N. implies no or not statistically significant activity.

Escherichia coli = test: Antibacterial activity
Xanthomonas phaseoli = test: Antibacterial activity
Aerobacter aerogenes = test: Antibacterial activity
Neisseria catarrhalis = test: Antibacterial activity
Alcaligenes viscolatis = test: Antibacterial activity
Staphylococcus aureus = test: Antibacterial activity
[3] = tested on: Micrococcus lysodeikticus; test: Antibacterial activity
Streptococcus faecalis = test: Antibacterial activity
Sarcina lutea = test: Antibacterial activity
Bacillus subtilis = test: Antibacterial activity
[4] = cited from earlier work

| chromatographic logP [1] | IC50 [2] [nM] | Compound | P388 in vivo ILS (percentage increase in life span) (P388 tumour cells) [%] | P388 in vivo Active (P388 tumour cells) | further results |
| --- | --- | --- | --- | --- | --- |
| -0.2 | 105 | CN(C)CCNC(=O)c1cccc2cc3ccccc3nc12 [Compound 1] | 91 | Y |  |
| -0.3 | 66 | Cc1c2ccccc2nc2c(C(=O)NCCN(C)C)cccc12 [Compound 2, N-(2-dimethylaminoethyl)-9-methylacridine-4-carboxamide] | 14 | N |  |
| -0.93 | 157 | CN(C)CCCNC(=O)c1cccc2c(N)c3ccccc3nc12 [Compound 5] | 0 | N |  |
| -1.06 | 77 | Nc1c2ccccc2nc2c(C(=O)NCCNCCO)cccc12 [Compound 6] | 80 | Y |  |
| -0.67 | 5.5 | CCN(CC)CCNC(=O)c1cccc2c(N)c3ccccc3nc12 [Compound 7] | 70 | Y |  |
| -1.18 | 414 | NCCNC(=O)c1cccc2c(N)c3ccccc3nc12 [Compound 8] | 71 | Y |  |
|  | 319 | CN(C)CCNC(=O)c1cc([N+](=O)[O-])cc2c(N)c3ccccc3nc12 [Compound 9] | 25 | Y |  |
|  | 162 | CN(C)CCNC(=O)c1cc(N)cc2c(N)c3ccccc3nc12 [Compound 10] | 28 | Y |  |
|  | 1.3 | CN(C)CCNC(=O)c1cccc2c(N)c3cccc([N+](=O)[O-])c3nc12 [Compound 11] | 39 | Y |  |
|  | 18 | CN(C)CCNC(=O)c1cccc2c(N)c3cccc(N)c3nc12 [Compound 12] | 58 | Y |  |
| -1.02 | 0.33 | Cc1cccc2c(N)c3cccc(C(=O)NCCN(C)C)c3nc12 [Compound 13] | 107 | Y |  |
| -1.06 | 4.3 | COc1cccc2c(N)c3cccc(C(=O)NCCN(C)C)c3nc12 [Compound 14] | 81 | Y |  |
|  | 2.9 | CN(C)CCNC(=O)c1cccc2c(N)c3cccc(Cl)c3nc12 [Compound 15] | 81 | Y |  |
|  | 0.05 | CN(C)CCNC(=O)c1cccc2c(N)c3ccc([N+](=O)[O-])cc3nc12 [Compound 16] | 23 | Y |  |
|  | 35 | CN(C)CCNC(=O)c1cccc2c(N)c3ccc(N)cc3nc12 [Compound 17] | 58 | Y |  |
| -0.82 | 55 | Cc1ccc2c(N)c3cccc(C(=O)NCCN(C)C)c3nc2c1 [Compound 18] | 20 | N |  |
|  | 151 | COc1ccc2c(N)c3cccc(C(=O)NCCN(C)C)c3nc2c1 [Compound 19] | 17 | N |  |
| -1.29 | 104 | CN(C)CCNC(=O)c1cccc2c(N)c3cc([N+](=O)[O-])ccc3nc12.Cl.Cl [Compound 20, N-(2-dimethylaminoethyl)-9-amino-7-nitroacridine-4-carboxamide dihydrochloride] | 34 | Y |  |
| -1.64 | 48 | CN(C)CCNC(=O)c1cccc2c(N)c3cc(N)ccc3nc12 [Compound 21] | 80 | Y |  |
|  | 605 | Cc1ccc2nc3c(C(=O)NCCN(C)C)cccc3c(N)c2c1 [Compound 22] | 0 | N |  |
|  | 518 | COc1ccc2nc3c(C(=O)NCCN(C)C)cccc3c(N)c2c1 [Compound 23] | 4 | N |  |
|  | 722 | CN(C)CCNC(=O)c1cccc2c(N)c3cc(Cl)ccc3nc12 [Compound 24] | 8 | N |  |
|  |  | CCN(CC)CCCC(C)Nc1c2ccc(Cl)cc2nc2ccc(OC)cc12 (centres unmarked) [mepacrine] |  |  | Local clinical cytostatic effects [4]: Local clinical cytostatic effects |

| Compound | chromatographic logP [1] | IC50 [2] [nM] | P388 in vivo ILS (percentage increase in life span) (P388 tumour cells) [%] | P388 in vivo Active (P388 tumour cells) | further results |
| --- | --- | --- | --- | --- | --- |
| CNc1c2ccccc2nc2c(C(=O)NCCN(C)C)cccc12 [Compound 3] | -1.11 | 15 | 53 | Y |  |
| CN(C)CCNC(=O)c1cccc2c(N)c3ccccc3nc12 [Compound 4] | -1.11 |  | 98 | Y | Antibacterial activity (Escherichia coli): active; Antibacterial activity (Xanthomonas phaseoli): active; Antibacterial activity (Aerobacter aerogenes): active; Antibacterial activity (Neisseria catarrhalis): active; Antibacterial activity (Alcaligenes viscolatis): active; Antibacterial activity (Staphylococcus aureus): active; Antibacterial activity [3]: active; Antibacterial activity (Streptococcus faecalis): active; Antibacterial activity (Sarcina lutea): active; Antibacterial activity (Bacillus subtilis): active |
